For data set [1] the following is noted: 40 min. The method, then:
35.0% azithromycin physical mixture was as well dispersed in Milli-Q® water to get a final concentration of azithromycin of 5.6% in vials. Furthermore, 5.6% coarse drug powder was suspended in Milli-Q® water for comparison. The samples were stored at 25° C. shaking with 100 rpm in an Innova® 4230 shaker for 40 minutes. To separate the dissolved drug, the samples were first centrifuged (17,968×g; 10 minutes) and subsequently the supernatant was filtered (50 nm pore size, Whatman® 110603 filter). The drug concentration in such obtained sample was determined by HPLC.

The conditions of data set [2]: at 25° C. in water, Mauludin PhD thesis 2008; cited from earlier work.

Regarding `CC[C@H]1OC(=O)[C@H](C)[C@@H](O[C@H]2C[C@@](C)(OC)[C@@H](O)[C@H](C)O2)[C@H](C)[C@@H](O[C@@H]2O[C@H](C)C[C@H](N(C)C)[C@H]2O)[C@](C)(O)C[C@@H](C)CN(C)[C@H](C)[C@@H](O)[C@]1(C)O` [azithromycin raw drug powder, azithromycin], the “saturation solubility in water” value in data set [1] came out at 93 µg/mL.
As to `COc1ccc([C@@H]2CC(=O)c3c(O)cc(O[C@@H]4O[C@H](CO[C@@H]5O[C@@H](C)[C@H](O)[C@@H](O)[C@H]5O)[C@@H](O)[C@H](O)[C@H]4O)cc3O2)cc1O` [hesperidin raw powder, hesperidin], the “saturation solubility Cs” value in data set [2] is given as “about 20 μg/ml”.

Source of the values: patent US20170246111A1, “ACTIVE-LOADED PARTICULATE MATERIALS FOR TOPICAL ADMINISTRATION” (PHARMASOL GMBH, priority 2014, published 2017).
